Measured values reported in PMC11510666, “Thiazolidinedione-Conjugated Lupeol Derivatives as Potent Anticancer Agents Through a Mitochondria-Mediated Apoptotic Pathway” (Molecules, 2024).

Key:
[1] = test system: human lung cancer A549; experiment: MTT antiproliferative assay, A549; assay type: cell-based; conditions: 48 h, mean ± SD, three independent experiments
Experimental: (§1) These cell lines were cultured in Dulbecco's Modified Eagle Medium containing 10% (v/v) fetal bovine serum (FBS, Wisent) and 1% (v/v) Penicillin-Streptomycin Solution mixture (Beyotime, Shanghai, China) at 37 °C under 5% CO2. An MTT assay evaluated the cytotoxicity of lupeol derivatives toward the A549, MCF-7, HepG2, and LO2 cell lines. The cells were inoculated into 96-well plates (3 × 10^3 cells/well) and cultured for 24 h at 37 °C in 5% CO2. After that, a gradient concentration of the test drug was added to continue the incubation for 48 h. Subsequently, the MTT solution continued to incubate with the cells for 4 h. Afterward, the upper waste layer was discarded, and DMSO was added ([…], Tianjin, China). After the formazan completely dissolved, the absorbance of each well at 490 nm was measured with a microplate reader. The mean values were derived from three independent experiments.

[2] = test system: human breast cancer MCF-7; experiment: MTT antiproliferative assay, MCF-7; assay type: cell-based; conditions: 48 h, mean ± SD, three independent experiments
Experimental: as §1

[3] = test system: human hepatocarcinoma HepG2; experiment: MTT antiproliferative assay, HepG2; assay type: cell-based; conditions: for SI (selectivity index): IC50 values on L02 cells/HepG2 cells; for IC50: MTT, 48 h, mean ± SD, three independent experiments
Experimental: as §1

[4] = test system: human hepatic LO2 cells; conditions: read-out: IC50 LO2; MTT, 48 h, mean ± SD, three independent experiments
Experimental: as §1

IC50 [1] [µM] | IC50 [2] [µM] | IC50 [3] [µM] | Compound | SI (selectivity index) [3] | IC50 [4] [µM]
16.4 ± 0.43 | 9.12 ± 0.24 | 15.8 ± 0.68 | C=C(C)C1CCC2(C)CCC3(C)C(CCC4C5(C)CCC(OC(=O)NCCNC(=O)CN6C(=O)SC(=Cc7ccc(C(C)(C)C)cc7)C6=O)C(C)(C)C5CCC43C)C12 (stereo not drawn) [Compound 12d, Lupeol-3-[(1-Ethylenediaminyl)-4]-5-(4-Tert-Butylphenyl)-2,4-Thiazolidinedione] | 3.80 | 59.9 ± 1.03
13.8 ± 0.76 | 14.4 ± 0.72 | 12.9 ± 0.52 | C=C(C)C1CCC2(C)CCC3(C)C(CCC4C5(C)CCC(OC(=O)NCCNC(=O)CN6C(=O)SC(=Cc7ccccc7OC)C6=O)C(C)(C)C5CCC43C)C12 (stereo not drawn) [Compound 12e, Lupeol-3-[(1-Ethylenediaminyl)-4]-5-(2-Methoxybenzylidene)-2,4-Thiazolidinedione] | 4.46 | 57.7 ± 1.14
9.68 ± 0.52 | 10 ± 0.22 | 9.43 ± 0.78 | C=C(C)C1CCC2(C)CCC3(C)C(CCC4C5(C)CCC(OC(=O)NCCNC(=O)CN6C(=O)SC(=Cc7ccc(OC)c(OC)c7OC)C6=O)C(C)(C)C5CCC43C)C12 (stereo not drawn) [Compound 12f, Lupeol-3-[(1-Ethylenediaminyl)-4]-5-(2,3,4-Trimethoxybenzylidene)-2,4-Thiazolidinedione] | 3.77 | 35.53 ± 0.34
15.7 ± 1.42 | 16.4 ± 0.87 | 14.3 ± 0.56 | C=C(C)C1CCC2(C)CCC3(C)C(CCC4C5(C)CCC(OC(=O)NCCNC(=O)CN6C(=O)SC(=Cc7ccco7)C6=O)C(C)(C)C5CCC43C)C12 (stereo not drawn) [Compound 12g, Lupeol-3-[(1-Ethylenediaminyl)-4]-5-(2-Furanylmethylene)-2,4-Thiazolidinedione] | 4.42 | 63.2 ± 1.31
13.4 ± 1.08 | 17.3 ± 1.28 | 18.6 ± 1.49 | C=C(C)C1CCC2(C)CCC3(C)C(CCC4C5(C)CCC(OC(=O)NCCNC(=O)CN6C(=O)SC(=Cc7cccs7)C6=O)C(C)(C)C5CCC43C)C12 (stereo not drawn) [Compound 12h, Lupeol-3-[(1-Ethylenediaminyl)-4]-5-(2-Thienylmethylene)-2,4-Thiazolidinedione] | – | 77.5 ± 1.27
